According to patent publication US7964531B2, “3-phenoxy-4-pyridazinol derivatives and herbicidal composition containing the same” (Mitsui Chemicals Agro, Inc., priority 2001, dated 2011):

melting point	Compound
139 to 142 °C	Cc1cccc(C2CC2)c1Oc1nnc(Cl)cc1OC(=O)c1ccc(C(C)(C)C)cc1 [Compound No. 1575, 6-Chloro-3-(2-cyclopropyl-6-methylphenoxy)-4-pyridazinyl 4-tert-butylbenzoate]
298 to 300 °C	Cc1cc(C)c(Cl)c(Oc2nnc(Cl)cc2O)c1C [Compound No. 2599, 6-Chloro-3-(2-chloro-3,5,6-trimethylphenoxy)-4-pyridazinol]
175 to 177 °C	Oc1cc(Cl)nnc1Oc1ccccc1C1CC1(F)Cl (stereo not shown) [Compound No. 2519, 6-Chloro-3-[2-(2-chloro-2-fluorocyclopropyl)phenoxy]-4-pyridazinol]
213 to 216 °C	Oc1cc(Cl)nnc1Oc1cccc(C(F)(F)F)c1 [Compound No. 418, 6-Chloro-3-[3-(trifluoromethyl)phenoxy]-4-pyridazinol]
212 to 219 °C	Cc1cc(C)c(C2CC2)c(Oc2nnc(Cl)cc2O)c1C [Compound No. 1126, 6-Chloro-3-(2-cyclopropyl-3,5,6-trimethylphenoxy)-4-pyridazinol]
202 to 203 °C	Oc1cc(Cl)nnc1Oc1cccc(I)c1 [Compound No. 412, 6-Chloro-3-(3-iodophenoxy)-4-pyridazinol]
69 to 71 °C	Cc1cccc(C2CC2)c1Oc1nnc(Cl)cc1OC(=O)C(C)(C)Br [Compound No. 2697, 6-Chloro-3-(2-cyclopropyl-6-methylphenoxy)-4-pyridazinyl 2-bromo-2-methylpropanoate]
163 to 164 °C	C/C=C/c1cccc(/C=C/C)c1Oc1nnc(Cl)cc1O [Compound No. 979, 6-Chloro-3-{2,6-di[(1E)-1-propenyl]phenoxy}-4-pyridazinol]
216 to 217 °C	Oc1cc(Cl)nnc1Oc1ccccc1I [Compound No. 127, 6-Chloro-3-(2-iodophenoxy)-4-pyridazinol]
242 to 244 °C	Cc1c(F)cccc1Oc1nnc(Cl)cc1O [Compound No. 453, 6-Chloro-3-(3-fluoro-2-methylphenoxy)-4-pyridazinol]
194 to 195 °C	Oc1cc(Cl)nnc1Oc1cc(Cl)ccc1C1CC1 [Compound No. 659, 6-Chloro-3-(5-chloro-2-cyclopropylphenoxy)-4-pyridazinol]
75 to 77 °C	CCC(=O)Oc1cc(Cl)nnc1Oc1c(C)cccc1C1CC1 [Compound No. 1160, 6-Chloro-3-(2-cyclopropyl-6-methylphenoxy)-4-pyridazinyl propionate]
127 to 128 °C	Cc1cccc(C2CC2)c1Oc1nnc(Cl)cc1OC(=O)c1ccc(C(F)(F)F)cc1 [Compound No. 2988, 6-Chloro-3-(2-cyclopropyl-6-methylphenoxy)-4-pyridazinyl 4-(trifluoromethyl)benzoate]
70.5 to 71.5 °C	CCCS(=O)(=O)Oc1cc(Cl)nnc1Oc1c(C)cccc1C1CC1 [Compound No. 2051, 6-Chloro-3-(2-cyclopropyl-6-methylphenoxy)-4-pyridazinyl 1-propanesulfonate]
165 to 167 °C	Oc1cc(Cl)nnc1Oc1ccccc1-c1nc2ccccc2o1 [Compound No. 375, 3-[2-(1,3-Benzoxazol-2-yl)phenoxy]-6-chloro-4-pyridazinol]
162 to 172 °C	CS(=O)(=O)Oc1cc(Cl)nnc1Oc1ccccc1C1CC1 [Compound No. 1985, 6-Chloro-3-(2-cyclopropylphenoxy)-4-pyridazinyl methanesulfonate]
64 to 67 °C	Cc1cccc(C2CC2)c1Oc1nnc(Cl)cc1OS(=O)(=O)C(F)(F)F [Compound No. 2106, 6-Chloro-3-(2-cyclopropyl-6-methylphenoxy)-4-pyridazinyl trifluoromethanesulfonate]
208 to 210 °C (dec.)	Oc1cc(Cl)nnc1Oc1ccccc1C1CC1(Br)Br (stereo not shown) [Compound No. 266, 6-Chloro-3-[2-(2,2-dibromocyclopropyl)phenoxy]-4-pyridazinol]
233 to 235 °C	CC(C)c1ccc(Oc2nnc(Cl)cc2O)cc1 [Compound No. 432, 6-Chloro-3-(4-isopropylphenoxy)-4-pyridazinol]
230 to 231 °C	Cc1c(F)ccc(C2CC2)c1Oc1nnc(Cl)cc1O [Compound No. 1052, 6-Chloro-3-(6-cyclopropyl-3-fluoro-2-methylphenoxy)-4-pyridazinol]
158 to 163 °C	Oc1cc(Cl)nnc1Oc1ccccc1C1CC1(Cl)Cl (stereo not shown) [Compound No. 265, 6-Chloro-3-[2-(2,2-dichlorocyclopropyl)phenoxy]-4-pyridazinol]
254 to 256 °C	Cc1cc(C)c(Oc2nnc(Cl)cc2O)c(Br)c1 [Compound No. 1119, 3-(2-Bromo-4,6-dimethylphenoxy)-6-chloro-4-pyridazinol]
278 to 283 °C	Cc1cc(C)c(C)c(Oc2nnc(Cl)cc2O)c1C [Compound No. 1125, 6-Chloro-3-(2,3,5,6-tetramethylphenoxy)-4-pyridazinol]
170 to 172 °C	CCCc1ccccc1Oc1nnc(Cl)cc1O [Compound No. 131, 6-Chloro-3-(2-propylphenoxy)-4-pyridazinol]
157 to 165 °C	COC1(c2ccccc2Oc2nnc(Cl)cc2O)CC1 [Compound No. 202, 6-Chloro-3-[2-(1-methoxycyclopropyl)phenoxy]-4-pyridazinol]
229 to 231 °C	Oc1cc(Cl)nnc1Oc1ccccc1C1CC1 [Compound No. 139, 6-Chloro-3-(2-cyclopropylphenoxy)-4-pyridazinol]

melting point	Compound
195 to 197 °C	C=Cc1cc(O)c(Oc2ccccc2C)nn1 [Compound No. 2436, 3-(2-Methylphenoxy)-6-vinyl-4-pyridazinol]
99 to 100 °C	O=[N+]([O-])c1ccccc1Oc1nnc(Cl)cc1O [Compound No. 383, 6-Chloro-3-(2-nitrophenoxy)-4-pyridazinol]
249 to 250 °C	Nc1ccccc1OC1(Cl)NN=CC=C1O (stereo not shown) [Compound No. 377, 3-(2-Aminophenoxy)-3-chloro-4-pyridazinol]
80 to 83 °C	Cc1ccc(C)c(Oc2nnc(Cl)cc2O)c1 [Compound No. 621, 6-Chloro-3-(2,5-dimethylphenoxy)-4-pyridazinol]
187 to 192 °C	COc1ccc(C#N)cc1Oc1nnc(Cl)cc1O [Compound No. 707, 3-[(6-Chloro-4-hydroxy-3-pyridazinyl)oxy]-4-methoxybenzonitrile]
240 to 241 °C	Cc1cccc(Oc2nnc(Cl)cc2O)c1C [Compound No. 456, 6-Chloro-3-(2,3-dimethylphenoxy)-4-pyridazinol]
113 to 115 °C	Cc1cccc(C2CC2)c1Oc1nnc(Cl)cc1OC(=O)N(C)C(C)(C)C
171 to 175 °C	Cc1ccc(C)c(C2CC2)c1Oc1nnc(Cl)cc1O [Compound No. 1073, 6-Chloro-3-(2-cyclopropyl-3,6-dimethylphenoxy)-4-pyridazinol]
261 to 263 °C	Cc1ccc(Oc2nnc(Cl)cc2O)cc1 [Compound No. 430, 6-Chloro-3-(4-methylphenoxy)-4-pyridazinol]
122 to 125 °C	O=C(Oc1cc(Cl)nnc1Oc1ccccc1C1CC1)C1CC1 [Compound No. 1266, 6-Chloro-3-(2-cyclopropylphenoxy)-4-pyridazinyl cyclopropanecarboxylate]
249 to 258 °C	CC(C)(C)c1ccc(C(C)(C)C)c(Oc2nnc(Cl)cc2O)c1 [Compound No. 653, 6-Chloro-3-(2,5-di-tert-butylphenoxy)-4-pyridazinol]
175 to 180 °C	Oc1cc(Cl)nnc1Oc1c(C2CC2)ccc2ccoc12 [Compound No. 1102, 6-Chloro-3-[(6-cyclopropyl-1-benzofuran-7-yl)oxy]-4-pyridazinol]
38 to 39 °C	Cc1cccc(C2CC2)c1Oc1nnc(Cl)cc1OC(=O)C(C)C [Compound No. 1172, 6-Chloro-3-(2-cyclopropyl-6-methylphenoxy)-4-pyridazinyl 2-methylpropanoate]
220 to 225 °C	Oc1cc(Cl)nnc1Oc1cccc2occc12 [Compound No. 531, 3-(1-benzofuran-4-yloxy)-6-chloro-4-pyridazinol]
222 to 225 °C	Cc1ccc2c(c1Oc1nnc(Cl)cc1O)CCC2 [Compound No. 1088, 6-Chloro-3-[(5-methyl-2,3-dihydro-1H-inden-4-yl)oxy]-4-pyridazinol]
119 to 120 °C	C[Si](C)(C)c1c(Cl)nnc(Oc2ccccc2)c1O
205 to 208 °C	Cc1cccc(Oc2nnc(Cl)cc2O)c1 [Compound No. 413, 6-Chloro-3-(3-methylphenoxy)-4-pyridazinol]
183 to 186 °C	C=CCc1c(OC)ccc(CC)c1Oc1nnc(Cl)cc1O [Compound No. 1080, 3-(2-Allyl-6-ethyl-3-methoxyphenoxy)-6-chloro-4-pyridazinol]
160 to 163 °C	CC(C)(C)c1ccccc1Oc1nnc(Cl)c([Si](C)(C)C)c1O
210 to 217 °C	CC=Cc1ccc(F)cc1Oc1nnc(Cl)cc1O [Compound No. 679, 6-Chloro-3-[5-fluoro-2-(1-propenyl)phenoxy]-4-pyridazinol]
213 to 215 °C	Cc1cccc(C2CC2(Cl)Cl)c1Oc1nnc(Cl)cc1O (stereo not shown) [Compound No. 827, 6-Chloro-3-[2-(2,2-dichlorocyclopropyl)-6-methylphenoxy]-4-pyridazinol]
254 to 260 °C	Cc1c(Cl)ccc(Br)c1Oc1nnc(Cl)cc1O [Compound No. 1053, 3-(6-Bromo-3-chloro-2-methylphenoxy)-6-chloro-4-pyridazinol]
102 to 104 °C	Cc1ccc(S(=O)(=O)Oc2cc(Cl)nnc2Oc2ccccc2C)cc1 [Compound No. 2220, 6-Chloro-3-(2-methylphenoxy)-4-pyridazinyl 4-methylbenzenesulfonate]
199 to 201 °C	COc1cccc(OC)c1Oc1nnc(Cl)cc1O [Compound No. 987, 6-Chloro-3-(2,6-dimethoxyphenoxy)-4-pyridazinol]
249 to 250 °C	Cc1cc(F)ccc1Oc1nnc(Cl)cc1O [Compound No. 557, 6-Chloro-3-(4-fluoro-2-methylphenoxy)-4-pyridazinol]

Compound	melting point
CN(C)C(=O)Oc1cc(Cl)nnc1Oc1ccccc1C1CC1	137 to 138 °C
